The values that follow come from US11628160B2, “Compositions and methods for treating brain injury” (Azevan Pharmaceuticals, Inc., priority 2017, dated 2023).

SMILES strings stand for the structures.

Assay [1] has as its system Male Sprague Dawley rats. Nature of the assay: Resting state functional connectivity (fMRI). The class given is in vivo, rat. Particulars: Treatment group. The text has this:
EXAMPLE. Resting state functional connectivity. Resting-state fMRI scan is collected using spin-echo triple-shot EPI sequence (imaging parameters: matrix size=96×96×20, TR/TE=3000/15 msec, voxel size=[…], slice thickness=1 mm. Preprocessing is illustratively accomplished by combining Analysis of Functional NeuroImages (AFNI_17.1.12, http://afni.nimh.nih.gov/afni/), FMRIB Software library (FSL, v5.0.9, http://fsl.fmrib.ox.ac.uk/fsl/), Deformable Registration via Attribute Matching and Mutual-Saliency Weighting (DRAMMS 1.4.1, https://www.cbica.upenn.edu/sbia/software/dramms/index.html) and MATLAB (Mathworks, Natick, Mass.). Brain tissue masks for resting-state functional images are manually drawn using 3DSlicer (https://www.slicer.org/) and applied for skull-stripping. Normalization is completed by registering functional data to the MRI Rat Brain Template (Ekam Solutions LLC, Boston, Mass.) using affine registration through DRAMMS. The region-to-region functional connectivity method is illustratively performed to measure the correlations in spontaneous BOLD fluctuations. A network is comprised of nodes and edges; nodes being the brain region of interest (ROI) and edges being the connections between regions. Nodes are defined using the ROIs segmented from an appropriate MRI RAT Brain Atlas. Illustratively, 171 nodes are defined. Voxel time series data are averaged in each node based on the residual images using the nuisance regression procedure. Pearson's correlation coefficients across all pairs of nodes (14535 pairs for 171 nodes) are computed for each subject among all three groups to assess the interregional temporal correlations. The r-values (ranging from −1 to 1) are z-transformed using the Fisher's Z transform to improve normality. For 171 nodes, 171×171 symmetric connectivity matrices are constructed with each entry representing the strength of edge. Group-level analysis is performed to look at the functional connectivity in controls, one hit and three hit groups. The resulting Z-score matrices from one-group t-tests are clustered using the K-nearest neighbors clustering method to identify how nodes cluster together and form resting state networks. A Z-score threshold of |Z|=2.3 is applied to remove spurious or weak node connections for visualization purposes.
Beginning on postnatal (P)70, animals are divided into 3 groups (n=6-7/group; Sham Control Group (Control, CG), Injury Group (IG), and Treatment Group (TG) and begin their head impact, and drug regimens. All groups are anaesthetized with 4% isoflurane in oxygen, and Injury group and Treatment group receive the first of two total head impacts) using a custom setup from Animal Imaging Research (AIR; Holden, Mass.) on P70. […]

The test system of assay [2] is Male Sprague Dawley rats. Description: Edema and ventricular volumes (T2 relaxometry MRI). The class given is in vivo, rat. The note with it: Treatment group; no significant difference to Control group. As to the method: EXAMPLE. T2 Relaxometry measurement of edema. MRI was conducted 24-28 days after the injury to characterize edematous volume in the lateral ventricles using T2 relaxometry. The time of imaging was based on the rat model used for TBI assessment by Charles River. Images are acquired using a multi-slice multi-echo (MSME) pulse sequence. The echo time (TE) is illustratively 11 ms, and 16 echoes are acquired during imaging with a recovery time (TR) of 2500 ms. Images are acquired with a field of view [FOV] 3 cm^2, data matrix=256×256×20 slices, thickness=1 mm. Values for […] relaxation time (T2) are obtained from all the slices using ParaVison 5.1 software. T2 is used to characterize the edematous volume in the lateral ventricle. The T2 values are used for segmentation and quantification of the ventricle volume. The T2 values are computed using the equation; y=A+Cexp (−t/T2) (S.D. weighted) obtained from the Paravision 5.1 software, where, A=absolute bias, C=signal intensity, t=echo time and T2=spin-spin relaxation time. The ventricle is identified as a hyperintensity on the T2 map over three 1 mm sections. The volume is calculated using a snake region growth algorithm in itk-SNAP (www.itksnap.org). The threshold is illustratively set at 6300 to 9000 as absolute pixel intensity. A point is seeded within the ventricle and the algorithm run until segmentation is complete. […]

Take `C[C@@H](NC(=O)[C@@H](CC(=O)N1CCC(N2CCCCC2)CC1)N1C(=O)[C@@H](N2C(=O)OC[C@@H]2c2ccccc2)[C@H]1/C=C/c1cccc(I)c1)c1ccccc1` [Example 266]: in the assay with Male Sprague Dawley rats [1], the “connectivity of hippocampus, Area M” value is “hyperconnectivity compared to Injury group and Control group”; the “connectivity of ventral hippocampus, Area G” value is “hyperconnectivity compared to Injury group and Control group”. Also, the “functional connectivity in network circuitry associated with learning, cognition, memory, and attention” value in the assay with Male Sprague Dawley rats [1] (even compared to Control group) is recorded as “enhanced functional connectivity”. In the assay on Male Sprague Dawley rats [1] (166 brain areas), the “resting state functional connectivity network” value is listed as “hyperconnectivity”. For the same compound, the “volume of lateral ventricles at the level of impact” value with Male Sprague Dawley rats [2] was “ventricular volume returns to normal levels”.
